According to paper PMC10931659, “Structural Characterization and Functional Analysis of Mevalonate Kinase from Tribolium castaneum (Red Flour Beetle)” (International Journal of Molecular Sciences, 2024):

T1: TcMevK (Tribolium castaneum, UniProt D2A4R0)
T1 construct: gene AUGUSTUS-3.0.2_15408; N-terminal His6 tag (pET28a-derived vector), expressed in E. coli BL21(DE3), Ni-chelating and Superdex 200 purified
T1 sequence (D2A4R0 1-396): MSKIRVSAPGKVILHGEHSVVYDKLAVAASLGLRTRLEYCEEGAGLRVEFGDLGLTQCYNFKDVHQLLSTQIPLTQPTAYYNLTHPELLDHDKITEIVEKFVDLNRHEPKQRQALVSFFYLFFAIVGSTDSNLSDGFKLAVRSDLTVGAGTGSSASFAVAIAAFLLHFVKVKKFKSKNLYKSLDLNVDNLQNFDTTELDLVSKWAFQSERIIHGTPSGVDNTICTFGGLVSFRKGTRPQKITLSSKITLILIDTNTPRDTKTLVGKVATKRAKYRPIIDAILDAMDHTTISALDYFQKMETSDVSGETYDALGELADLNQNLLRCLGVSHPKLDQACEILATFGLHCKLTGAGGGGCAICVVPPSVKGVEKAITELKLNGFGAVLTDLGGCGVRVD

T2: TcMevK (Tribolium castaneum, UniProt D2A4R0, D220A)
T2 construct: gene AUGUSTUS-3.0.2_15408; N-terminal His6 tag (pET28a-derived vector), expressed in E. coli BL21(DE3), Ni-chelating and Superdex 200 purified
T2 sequence (D2A4R0 1-396 D220A): T1 sequence (D2A4R0 1-396)

T3: TcMevK (Tribolium castaneum, UniProt D2A4R0, K11A)
T3 construct: gene AUGUSTUS-3.0.2_15408; N-terminal His6 tag (pET28a-derived vector), expressed in E. coli BL21(DE3), Ni-chelating and Superdex 200 purified
T3 sequence (D2A4R0 1-396 K11A): T1 sequence (D2A4R0 1-396)

T4: TcMevK (Tribolium castaneum, UniProt D2A4R0, V264A)
T4 construct: gene AUGUSTUS-3.0.2_15408; N-terminal His6 tag (pET28a-derived vector), expressed in E. coli BL21(DE3), Ni-chelating and Superdex 200 purified
T4 sequence (D2A4R0 1-396 V264A): T1 sequence (D2A4R0 1-396)

T5: TcMevK (Tribolium castaneum, UniProt D2A4R0, V21A)
T5 construct: gene AUGUSTUS-3.0.2_15408; N-terminal His6 tag (pET28a-derived vector), expressed in E. coli BL21(DE3), Ni-chelating and Superdex 200 purified
T5 sequence (D2A4R0 1-396 V21A): T1 sequence (D2A4R0 1-396)

T6: TcMevK (Tribolium castaneum, UniProt D2A4R0, S217A)
T6 construct: gene AUGUSTUS-3.0.2_15408; N-terminal His6 tag (pET28a-derived vector), expressed in E. coli BL21(DE3), Ni-chelating and Superdex 200 purified
T6 sequence (D2A4R0 1-396 S217A): T1 sequence (D2A4R0 1-396)

T7: TcMevK (Tribolium castaneum, UniProt D2A4R0, K234A)
T7 construct: gene AUGUSTUS-3.0.2_15408; N-terminal His6 tag (pET28a-derived vector), expressed in E. coli BL21(DE3), Ni-chelating and Superdex 200 purified
T7 sequence (D2A4R0 1-396 K234A): T1 sequence (D2A4R0 1-396)

B1: TcMevK (Tribolium castaneum) (protein)
chain: T1 sequence (D2A4R0 1-396)
notes: N-terminal His6 tag (pET28a-derived vector), expressed in E. coli BL21(DE3), Ni-chelating and Superdex 200 purified

How the values were obtained:
TcMevK [1] = target: T1, TcMevK; assay: intrinsic fluorescence quenching, excitation […] nm; assay type: binding; conditions: read-out: KD Value for Mev
TcMevK [2] = target: T2, TcMevK; assay: intrinsic fluorescence quenching, excitation […] nm; assay type: binding; conditions: read-out: KD Value for Mev
TcMevK [3] = target: T3, TcMevK; assay: intrinsic fluorescence quenching, excitation […] nm; assay type: binding; conditions: read-out: KD Value for Mev
TcMevK [4] = target: T4, TcMevK; assay: intrinsic fluorescence quenching, excitation […] nm; assay type: binding; conditions: read-out: KD Value for Mev
TcMevK [5] = target: T5, TcMevK; assay: intrinsic fluorescence quenching, excitation […] nm; assay type: binding; conditions: read-out: KD Value for Mev
TcMevK [6] = target: T6, TcMevK; assay: intrinsic fluorescence quenching, excitation […] nm; assay type: binding; conditions: read-out: KD Value for Mev
TcMevK [7] = target: T7, TcMevK; assay: intrinsic fluorescence quenching, excitation […] nm; assay type: binding; conditions: read-out: KD Value for Mev
purified protein = substrate: C[C@@](O)(CCO)CC(=O)O; assay: purified protein; assay type: biochemical, Tribolium castaneum; conditions: 5 mM ATP, 16 mM MgCl2, 75 mM KCl; Mev 0–500 μM; pH and temperature not stated for this assay

Molecule	Kd (TcMevK [1]) [µM]	Kd (TcMevK [2]) [µM]	Kd (TcMevK [3]) [µM]	Kd (TcMevK [4]) [µM]	Kd (TcMevK [5]) [µM]	Kd (TcMevK [6]) [µM]	Kd (TcMevK [7]) [µM]	Km (purified protein) [µM]
C[C@@](O)(CCO)CC(=O)O [mevalonate]	30 ± 0.93	47.5 ± 2.17	75.8 ± 0.84	57.1 ± 1.83	51.7 ± 2.16	70.2 ± 1.06	89.5 ± 2.45	–
B1	–	–	–	–	–	–	–	32.71 ± 1.09
